Columns and labels:
Assay in all cases: relative viability (nuclei count vs DMSO), 5 days (fraction); higher = more cells survive
AT-7519 + Olaparib = compound: O=C(NC1CCNCC1)c1n[nH]cc1NC(=O)c1c(Cl)cccc1Cl [AT-7519] + O=C(c1cc(Cc2n[nH]c(=O)c3ccccc23)ccc1F)N1CCN(C(=O)C2CC2)CC1 [Olaparib] (partner 8 µM)
In short: (§1)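 Medians of duplicate plates are given as relative viability. That measure is the nuclei count in treated wells divided by the count in vehicle wells. Counts were taken on 4× images of lung cancer cell lines in 1536-well plates, 5 days after pin-tool dosing the day after seeding with one drug alone or a fixed anchor-drug dose plus five library-drug doses (not always all listed) in √10 steps.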

[1] = compound: C1=CC2=C(C=C(C(=C2N=C1)O)N=NC3=CC4=C(C=C3)C=C(C=C4)S(=O)(=O)O)S(=O)(=O)O + CS(=O)(=O)CCNCc1ccc(-c2ccc3ncnc(Nc4ccc(OCc5cccc(F)c5)c(Cl)c4)c3c2)o1 [Lapatinib] (partner 2 µM)
In short: as §1

AT-7519 + Tozasertib = compound: O=C(NC1CCNCC1)c1n[nH]cc1NC(=O)c1c(Cl)cccc1Cl [AT-7519] + Cc1cc(Nc2cc(N3CCN(C)CC3)nc(Sc3ccc(NC(=O)C4CC4)cc3)n2)n[nH]1 [Tozasertib] (partner 0.1 µM)
In short: as §1

AT-7519 + Alpelisib = compound: O=C(NC1CCNCC1)c1n[nH]cc1NC(=O)c1c(Cl)cccc1Cl [AT-7519] + Cc1nc(NC(=O)N2CCC[C@H]2C(N)=O)sc1-c1ccnc(C(C)(C)C(F)(F)F)c1 [Alpelisib] (partner 2 µM)
In short: as §1

Cell Line	relative viability (AT-7519 + Olaparib; first compound 0.01 µM)	relative viability (AT-7519 + Olaparib; first compound 0.03162 µM)	relative viability (AT-7519 + Olaparib; first compound 0.3162 µM)	relative viability (AT-7519 + Olaparib; first compound 1 µM)	relative viability ([1]; first compound 0.08 µM)	relative viability ([1]; first compound 0.253 µM)	relative viability ([1]; first compound 0.8 µM)	relative viability ([1]; first compound 2.53 µM)	relative viability ([1]; first compound 8 µM)	relative viability (AT-7519 + Tozasertib; first compound 0.01 µM)	relative viability (AT-7519 + Tozasertib; first compound 0.03162 µM)	relative viability (AT-7519 + Tozasertib; first compound 0.3162 µM)	relative viability (AT-7519 + Tozasertib; first compound 1 µM)	relative viability (AT-7519 + Alpelisib; first compound 0.01 µM)	relative viability (AT-7519 + Alpelisib; first compound 0.03162 µM)	relative viability (AT-7519 + Alpelisib; first compound 0.3162 µM)	relative viability (AT-7519 + Alpelisib; first compound 1 µM)
HCC-44	1.08	1.01	0.937	1.02	1.08	0.975	0.96	1.05	1.09	1.14	0.809	0.303	0.231	0.835	0.835	0.769	0.572
HCC-78	1.01	0.758	0.806	0.666	0.763	0.625	0.702	0.922	0.192	0.631	0.451	0.49	0.326	0.142	0.286	0.305	0.283
HCC-366	0.409	0.424	0.281	0.164	1.13	0.954	1.03	1.02	1.02	0.0905	0.186	0.119	0.0621	0.362	0.347	0.514	0.228
HCC-827	0.635	0.815	0.659	0.54	0.19	0.159	0.185	0.189	0.188	0.399	0.403	0.447	0.645	1.03	0.999	1.02	0.708
HOP-62	0.558	0.248	0.189	0.373	1.32	0.925	0.972	1.05	0.993	0.344	0.279	0.353	0.399	1.19	0.965	0.936	0.668
IA-LM	0.866	0.892	0.834	0.631	0.681	0.718	0.707	0.796	0.793					0.904	0.617	0.779	0.488
LC-2-ad	0.75	0.726	0.736	0.622	0.982	0.937	0.922	0.954	0.589	0.49	0.467	0.519	0.266	0.914	0.843	0.904	0.472
LCLC-97TM1	0.284	0.264	0.355	0.294		0.665		0.835	1.04	0.24	0.208	0.27	0.124	0.29	0.195	0.254	0.162
LCLC-103H	0.763	0.805	0.834	0.833						0.489	0.408	0.511	0.432	0.956	0.908	0.976	0.952
LK-2	0.815	0.74	0.706	0.593	0.946	0.883	0.839	0.939	0.718	0.18	0.165		0.206	0.697	1.12	0.827	0.514
NCI-H441	0.524	0.559	0.446	0.204						0.788	0.565	0.573	0.343	0.685	0.706	0.617	0.299
NCI-H522	0.75	0.595	0.664	0.498							0.514	0.57	0.486				
NCI-H1299	0.97	1	0.935	1.09	0.959	0.913	0.944	0.956	0.939					1.1	1.08	1.17	1.15
NCI-H1563					0.957	1.02	0.916	0.976	1.13					0.868	0.942	0.942	0.781
NCI-H1623										0.378	0.401	0.518	0.393				
NCI-H1648	0.852		0.696	0.49						0.37		0.371	0.405				
NCI-H1650	0.899	0.776	0.75	0.193	0.753	0.739	0.714	0.821	0.734	0.532	0.436	0.392	0.148				
NCI-H1703	0.454	0.435	0.388	0.175	1.36	0.886	1.06	1.01	1.01					0.282	0.297	0.299	0.156
NCI-H1792	0.282	0.313	0.522	0.311	0.996	0.853	0.834	0.916	0.913					0.324	0.536	0.767	0.51
NCI-H2342	0.391	0.427	0.454	0.443						0.483	0.52	0.493	0.557				
SW 900	1.06	0.8	0.622	0.371						0.613	0.484	0.639	0.375				
